Experimental data: US20210163443A1, “Febrifugine Derivatives” (BRISTOL-MYERS SQUIBB COMPANY, priority 2019, published 2021)
Counter-ions that a name gives are not always drawn.

target: T1, human ProRS (prolyl tRNA synthetase moiety of glutamyl prolyl tRNA synthetase, EPRS) (Homo sapiens, UniProt P07814); experiment: Assay for inhibitors of prolyl tRNA synthetase activity (ProRS assay, labeled proline incorporation); type: biochemical; settings: human ProRS 20 nM, 10 min at 37° C.; read-out: EPRS IC50
T1 construct: The prolyl tRNA synthetase moiety (ProRS) in the cDNA of glutamyl prolyl tRNA synthetase was subcloned; 6xHis (N, cleaved yes); made in house; host or cells: E. coli BL21 (DE3)
T1 sequence (P07814 1007-1512 limits assumed): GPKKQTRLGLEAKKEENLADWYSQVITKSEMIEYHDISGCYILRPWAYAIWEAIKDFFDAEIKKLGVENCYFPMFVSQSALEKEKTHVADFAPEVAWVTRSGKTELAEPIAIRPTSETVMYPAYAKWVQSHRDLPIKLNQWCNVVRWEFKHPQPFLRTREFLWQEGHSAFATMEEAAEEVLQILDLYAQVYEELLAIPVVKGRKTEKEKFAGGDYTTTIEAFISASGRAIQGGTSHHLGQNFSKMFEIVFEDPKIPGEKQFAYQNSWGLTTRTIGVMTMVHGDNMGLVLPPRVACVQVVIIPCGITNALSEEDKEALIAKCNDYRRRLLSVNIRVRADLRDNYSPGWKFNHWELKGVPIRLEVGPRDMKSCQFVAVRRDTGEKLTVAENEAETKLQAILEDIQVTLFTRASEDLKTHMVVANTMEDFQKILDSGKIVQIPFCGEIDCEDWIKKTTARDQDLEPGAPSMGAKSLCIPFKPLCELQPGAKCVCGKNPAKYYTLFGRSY
Text: In order to establish the activities of the compounds highlighted above, we determined extent of inhibition of prolyl tRNA synthetase activity in dose response curves to obtain IC50 values.
The prolyl tRNA synthetase moiety (ProRS) in the cDNA of glutamyl prolyl tRNA synthetase was subcloned, tagged with a single biotin, purified and used in the assay.
Briefly, human ProRS with a 6×N-terminal His tag in pET28N with TVMV BioP was transformed in E. coli BL21 (DE3) cells, selected, overexpressed and purified using a Ni Seph 6 FF XK 16/20 column in the first stage. Ni-NTA eluates were pooled and treated with TVMV protease, and biotinylated using d-Biotin, MgCl2, ATP and the BirA enzyme. This was rerun through a Ni column as before. The eluates were further enriched and purified using membrane ultrafiltration and a SuperDex 200 XK 16/60 column, and peak fractions were confirmed by SDS-PAGE prior to protein amount determination, aliquoting and storage at −80° C. • ProRS assay was performed in 96 well plates in a final reaction volume of 20 μl, using staggered additions of Tris-Cl (pH 7.5, 60 mM), dithiothreitol (2 mM), ATP (5 mM, pH 7.0), MgCl2 6 mM), ProRS (20 nM, with pre-determined active fraction range) and bovine tRNA (20 μg). Controls and compounds, at various concentrations (10 μM to 0.5 nM), were incubated on ice with enzyme mix for 15 min followed by addition of proline (non-labeled and labeled, 3.96 and 1.04 μM (1 μCi) respectively) to initiate the reaction. Reaction was carried out for 10 min at 37° C. and terminated by addition of TCA (10%, 100 μl). Reaction mix was collected on a Whatman GF/B filter using a vacuum filtration manifold. This filter was washed 3 times with 5% TCA followed by 2 washes with ethanol, air dried, and read using a liquid scintillation counter (TopCount NXT) using MicroScint O. IC50 values were calculated and analyzed using ToolSet (4-parameter plot) and depicted herein.

**Q.** How did the IC50 turn out when `O=C(C[C@H]1NCCC[C@@H]1O)Cn1cnc2cccc(-c3cccnc3)c2c1=O` [Example 28, 3-{3-[(2R,3S)-3-Hydroxypiperidin-2-yl]-2-oxopropyl}-5-(pyridin-3-yl)quinazolin-4(3H)-one dihydrochloride] was run?
**A.** Its IC50 is 6 nM.

**Q.** With `Cc1ccc(C(F)(F)F)c2c(=O)n(CC(=O)C[C@H]3NCCC[C@@H]3O)cnc12` [Example 29, 3-{3-[(2R,3S)-3-Hydroxypiperidin-2-yl]-2-oxopropyl}-8-methyl-5-(trifluoromethyl)quinazolin-4(3H)-one hydrochloride] as the compound, how does the IC50 read?
**A.** Its IC50 is 313 nM.

**Q.** With `Cc1cc(F)cc2c(=O)n(C[C@@H](O)C[C@H]3NCCC[C@@H]3O)cnc12` [Example 34, 6-Fluoro-3-{(S)-2-hydroxy-3-[(2R,3S)-3-hydroxypiperidin-2-yl]propyl}-8-methylquinazolin-4(3H)-one hydrochloride] as the compound, how does the IC50 read?
**A.** The IC50 was 183 nM.

**Q.** `Cl.[2H]C([2H])([2H])c1cc(Cl)cc2c(=O)n(C[C@@H](O)C[C@H]3NCCC[C@@H]3O)cnc12` [Example 35, 6-Chloro-3-{(S)-2-hydroxy-3-[(2R,3S)-3-hydroxypiperidin-2-yl]propyl}-8-(methyl-d3)quinazolin-4(3H)-one hydrochloride] was tested. Which IC50 did it give?
**A.** The IC50 was 32 nM.

**Q.** Which IC50 does the source give for `Cc1c(Cl)ccc2c(=O)n(C[C@@H](O)C[C@H]3NCCC[C@@H]3O)cnc12` [Example 36, 7-Chloro-3-{(S)-2-hydroxy-3-[(2R,3S)-3-hydroxypiperidin-2-yl]propyl}-8-methylquinazolin-4(3H)-one hydrochloride] here?
**A.** The IC50 was 429 nM.

**Q.** For `Cc1cc(Br)cc2c(=O)n(C[C@@H](O)C[C@H]3NCCC[C@@H]3O)cnc12` [Example 37, 6-Bromo-3-{(S)-2-hydroxy-3-[(2R,3S)-3-hydroxypiperidin-2-yl]propyl}-8-methylquinazolin-4(3H)-one hydrochloride], which IC50 is on record?
**A.** Its IC50 is 62 nM.

**Q.** With `CCc1cc(Cl)cc2c(=O)n(C[C@@H](O)C[C@H]3NCCC[C@@H]3O)cnc12` [Example 38, 6-Chloro-8-ethyl-3-{(S)-2-hydroxy-3-[(2R,3S)-3-hydroxypiperidin-2-yl]propyl}quinazolin-4(3H)-one hydrochloride] as the compound, how does the IC50 read?
**A.** Its IC50 is 506 nM.

**Q.** Which IC50 does the source give for `Cc1cc(C)c2ncn(C[C@@H](O)C[C@H]3NCCC[C@@H]3O)c(=O)c2c1` [Example 39, 3-{(S)-2-Hydroxy-3-[(2R,3S)-3-hydroxypiperidin-2-yl]propyl}-6,8-dimethylquinazolin-4(3H)-one hydrochloride] here?
**A.** The IC50 was 158 nM.

**Q.** Which IC50 does the source give for `CCc1cc(C)c2ncn(C[C@@H](O)C[C@H]3NCCC[C@@H]3O)c(=O)c2c1` [Example 41, 6-Ethyl-3-{(S)-2-hydroxy-3-[(2R,3S)-3-hydroxypiperidin-2-yl]propyl}-8-methylquinazolin-4(3H)-one hydrochloride] here?
**A.** Its IC50 is 23 nM.

**Q.** With `Cc1cc(OC(F)(F)F)cc2c(=O)n(C[C@@H](O)C[C@H]3NCCC[C@@H]3O)cnc12` [Example 42, 3-{(S)-2-Hydroxy-3-[(2R,3S)-3-hydroxypiperidin-2-yl]propyl}-8-methyl-6-(trifluoromethoxy)quinazolin-4(3H)-one hydrochloride] as the compound, how does the IC50 read?
**A.** The IC50 was 20 nM.

**Q.** For `Cc1cc(S(C)(=O)=O)cc2c(=O)n(C[C@@H](O)C[C@H]3NCCC[C@@H]3O)cnc12` [Example 43, 3-{(S)-2-Hydroxy-3-[(2R,3S)-3-hydroxypiperidin-2-yl]propyl}-8-methyl-6-(methylsulfonyl)quinazolin-4(3H)-one hydrochloride], which IC50 is on record?
**A.** The IC50 was 38 nM.

**Q.** With `Cc1cc(C(F)(F)F)cc2c(=O)n(C[C@@H](O)C[C@H]3NCCC[C@@H]3O)cnc12` [Example 44, 3-{(S)-2-Hydroxy-3-[(2R,3S)-3-hydroxypiperidin-2-yl]propyl}-8-methyl-6-trifluoromethyl)quinazolin-4(3H)-one hydrochloride] as the compound, how does the IC50 read?
**A.** Its IC50 is 20 nM.

**Q.** `Cc1cc(C(C)C)cc2c(=O)n(C[C@@H](O)C[C@H]3NCCC[C@@H]3O)cnc12` [Example 45, 3-{(S)-2-Hydroxy-3-[(2R,3S)-3-hydroxypiperidin-2-yl]propyl}-6-isopropyl-8-methylquinazolin-4(3H)-one hydrochloride] was tested. Which IC50 did it give?
**A.** Its IC50 is 21 nM.
